Laboratory results as given in patent US7138262B1, “High mannose proteins and methods of making high mannose proteins” (Shire Human Genetic Therapies, Inc., priority 2000, dated 2006).

Tests used:
[1] = system: HT-1080 cells producing GA-GCB; test: Roller bottle production of glucocerebrosidase (GA-GCB) in cells treated with mannosidase inhibitors; type: cell-based, human; conditions: for Glucocerebrosidase Activity, Harvest 1: medium harvested about every 24 hours, specific activity 2,500 Units/mg
Description: Ten roller bottles (surface area, 1700 cm^2 each) were seeded in Growth Medium (DMEM with 10% calf serum) with HT-1080 cells producing GA-GCB. Following two weeks of growth, the medium was aspirated and 200 mL of fresh Production Medium (DMEM/F12, 0% calf serum) was added to three sets of roller bottles. Two sets of 4 roller bottles were treated with 1 μg/mL of either kifunensine or swainsonine. The third group of two roller bottles received no drug treatment. After approximately 24 hours, the medium from each roller bottle was harvested, pooled and a sample taken for GA-GCB enzymatic activity analysis. This procedure was repeated for seven days. […] Absolute levels of the enzyme, however, varied according to drug treatment group with the following average GA-GCB production levels observed across the seven harvests: 38.3±3.5 mg/L (control, no drug treatment), 24.5±4.0 mg/L (swainsonine, 1 μg/mL), and 21.3±2,8 mg/L (kifunensine, 1 μg/mL).

[2] = system: HT-1080 cells producing GA-GCB; test: Isoelectric focusing (IEF) analysis of GA-GCB glycoforms from cells treated with kifunensine or swainsonine; type: cell-based, human; conditions: for apparent isoelectric point (pI) of GA-GCB: 0.1 to 2 μg/mL drug, samples from the third day
Description: HT-1080 cells producing GA-GCB were plated in duplicate 6-well plates and the Production Medium adjusted to the following concentrations of kifunensine or swainsonine: 0 (no drug), 0.1, 0.25, 0.5, 1, and 2 μg/mL. The medium was harvested and the cells refed every 24 hours for three days. The samples from the third day were subjected to isoelectric focusing (IEF) analysis. The effect of kifunensine and swainsonine on the molecular charge of GA-GCB is shown by the IEF analysis.

[3] = system: mouse J774E cells; test: Internalization (uptake) of glucocerebrosidase into J774E macrophage cells, with or without mannan; type: cell-based; conditions: producing cells treated with 1 μg/mL of drug
Description: GA-GCB produced in HT-1080 cells was used in an in vitro assay to determine uptake efficiency in a mouse macrophage cell line. The specific objective of the experiment was to determine the absolute and mannose receptor-specific uptake of GA-GCB in mouse J774E cells. One day prior to assay, J774E cells were plated at 50,000 cells/cm^2 in 12 well plates in Growth Medium. For the assay, 0.5 mL of Production Medium (DMEM/F12), 0% calf serum) containing 50 nM vitamin D3 (1,2-5, Dihydroxy vitamin D3) was added to the cells. Unpurified GA-GCB (from harvest 4, Table 1) was added to the test wells at a final concentration of 10 μg/mL in the presence or absence of 2 μg/mL mannan (a competitor for the mannose receptor). Three different forms of GA-GCB were used: GA-GCB from cells treated with kifunensine (1 μg/mL), GA-GCB from cells treated with swainsonine (1 μg/mL), and GA-GCB (1 μg/mL) from untreated cells. Control wells received no GA-GCB. The wells were incubated for 4 hours at 37° C., then washed extensively in buffered saline, scraped into GA-GCB enzyme reaction buffer, passed through 2 freeze/thaw cycles, and clarified by centrifugation. The supernantant was then quantitatively tested for enzyme activity and total protein. Internalization of GA-GCB into mouse J744E cells is shown in Table 2 and is reported as Units/mg of cell lysate. […]

[4] = inhibitor 1 μg/ml, across seven harvests

SMILES	average GA-GCB production level across the seven harvests ([1]; inhibitor 1 μg/mL) [mg/L]	GA-GCB production level, average ± SD [1, 4] [mg/L]	Glucocerebrosidase Activity, Harvest 2 ([1]; inhibitor 1 μg/ml) [mg/L]	Glucocerebrosidase Activity, Harvest 3 ([1]; inhibitor 1 μg/ml) [mg/L]	Glucocerebrosidase Activity, Harvest 4 ([1]; inhibitor 1 μg/ml) [mg/L]	Glucocerebrosidase Activity, Harvest 5 ([1]; inhibitor 1 μg/ml) [mg/L]	Glucocerebrosidase Activity, Harvest 6 ([1]; inhibitor 1 μg/ml) [mg/L]	Glucocerebrosidase Activity, Harvest 7 ([1]; inhibitor 1 μg/ml) [mg/L]	Glucocerebrosidase Activity, Harvest 1 ([1]; inhibitor 1 μg/ml) [mg/L]	apparent isoelectric point (pI) of GA-GCB [2]	reduction of GA-GCB production relative to control ([1]; inhibitor 1 μg/mL, average of seven harvests) [%]	Glucocerebrosidase Activity, Average ± Standard Deviation [1, 4] [mg/L]	greater uptake of GA-GCB with kifunensine than with swainsonine [3]	shift in pI of GA-GCB, compared between the drugs ([2]; highest concentration tested (2 μg/mL))
O[C@H]1[C@H]2[C@H](O)CCCN2C[C@H]1O [Swainsonine, swainsonine]	24.5 ± 4.0	24.5 ± 4.0	17.4	28.5	27.0	22.9	25.0	22.3	28.6	concentration dependent increase	–	–	–	–
O=C1N[C@@H]2[C@@H](O)[C@@H](O)[C@H](O)[C@@H](CO)N2C1=O [Kifunensine, kifunensine]	–	–	22.9	17.7	21.2	18.4	21.0	22.0	26.0	concentration dependent increase	44	21.3 ± 2.8	approximately 2 fold	much larger shift in pI than swainsonine
